Laboratory results as given in patent US6365570B1, “Pharmaceutical and diagnostic use of Serum Amyloid P component” (priority 1999, dated 2002).
Entries after “also recorded” stand apart in the source; their conditions may differ.

Key:
[1] = target: binding of LPS to monocytes; experiment: Inhibition of FITC-LPS binding to monocytes (flow cytometry); format: cell-based, human; conditions: for IC50: FITC-LPS 2.5 ng/ml, 30 ng/ml recombinant LBP, mononuclear cells of healthy volunteers, 30 minutes at 37° C., read-out: 50% inhibition concentration; for inhibition of binding of LPS to monocytes (in words): FITC-LPS binding to monocytes in vitro, FIG. 2 / FIG. 4
Method: 2.1 Materials and method LPS of Salmonella Re595 (ReLPS, supra) is labelled with FITC (Sigma; F7250) under conditions in which LPS is present as monomer, resulting in a FITC-LPS preparation with a ratio of 1 molecule FITC per molecule PLS. After extension desalting and dialysis against PBS, the stock solution of FITC-LPS is stored at −20° C. Mononuclear leukocytes (monocytes and lymphocytes) are isolated from heparin blood of healthy volunteers via a Ficol (Pharmacial) gradient in accordance with a standard method. After washing the cells are resuspended in isotonic HEPES buffer (with 1 mM CalCl2 and 2% BSA). Preparations with SAP are mixed with FITC-LPS and subsequently added to 3×10^5 mononuclear cells and 30 ng/ml recombinant LSP (obtained from Dr. Lichtenstein) in a total volume of 50 μl and a FITC-LPS concentration of 2.5 ng/ml. After an incubating period of 30 minutes at 37° C., the samples are stored on ice. Analysis of monocyte-associated FITC-LPS binding takes place with PAC Scan™ Flow cytometer. Forward and Sideward Scatter parameters are used to identify the monocyte population. With LysisII™ software (Beckton & Dickinson) the average fluorescence value of 5000 monocytes is calculated. See also Weersing A. J. L. et al., J. Immunol. 145, 318-324 (1990)).
3.1 Materials and method The test was performed in the same manner as described in example 2. However, SAP fragments (peptides) were used instead of SAP. The amino acid composition of the tested peptides is shown in table 2, as well as the concentration at which 50% inhibition occurs.

[2] = tested on: LPS priming of neutrophils; experiment: Inhibition of LPS priming of neutrophils (fMLP/luminol luminescence); format: cell-based, human; conditions: 1 ng/ml ReLPS, 30 ng/ml r-LBP, 30 minutes at 37° C., fMLP stimulus, FIG. 3
Excerpt: 4.1 Materials and method Neutrophils are isolated from heparin blood of healthy volunteers via a Histopaque-Picoll gradient in accordance with a standard method (Van Amerafoort, E. S. & J. A. G. van Strijp, Cytometry 17, 294-301 (1994). The remaining erythrocytes in the neutrophil fraction are lysed with sterile water (for 30 seconds) and, after reinstatement of the isotonicity, the fraction is washed. The cells are finally inserted (suspended) in HGSS+2% Human Serum Albumin (HSA). Cells (1×10^4) are incubated with 1 ng/ml ReLPS, 30 ng/ml recombinant LPS-binding protein (r-LPS) and a sample SAP in a total volume of 100 μl for 30 minutes at 37° C. The samples are subsequently placed in a luminometer (Berthold; Autolumat LB953), whereafter via automatic injection luminol (180 μM) and 1 μM fMLP (formylmethyonyl-leucyl-phenylalanine) are added as stimulus to each tube. The luminescence response is measured continuously for 15 minutes and the results expressed as total luminescence response (area under the graph). See also Weersink et al., Immunology 83, 617-623 (1994).

[3] = tested on: LPS of Salmonella Re595; experiment: Binding to LPS-Beads, SDS-PAGE analysis; conditions: FIG. 1A and 1B, serum pre-incubated with free ReLPS
Method: 1.1 Materials and method A 1 mg/ml solution of LPS of Salmonella Re595 (Sigma; L9764) in carbonate buffer (0.1 M, pH 9.5) is incubated for 24 hours with 5×10^7 DynaBeads™ (M450, Dynal A. S., Oslo, Norway) activated with Tosyl. The beads loaded with LPS are washed 3x and stored in HBSS+0.1% Na-azide (5×10^7 b/ml). A 10% dilution (1 to 10 dilution) of serum of healthy volunteers is mixed with 5×10^6 LPS-Beads for 30 minutes at 22° C. The serum has optionally been incubated before hand with different concentrations of free LPS. The beads are washed 3x with HBSS (Gibco BRL, Gaithersburg, Md., US) and subsequently resuspended in 25 μl SDS-PAGE sample buffer (with 2% SDS and 2.5% DTT). After boiling for 3 minutes at 100° C. the sample is analyzed on a 12.5% SDS-PAGE (Mini-ProteanII; Bio-Rad). The proteins present are stained with Coomassie Blue. A sample with Marker proteins of known sizes (Bio-Rad) serves as reference. For identification the proteins are transferred after SDS-PAGE to nitrocellulose paper by means of a Mini Trans-Blotter™. The proteins are stained with Coomassie Blue, and the protein around 30 kDa is […] and dissolved in buffer. The sequence of this sample is determined. SAP is isolated from normal human serum by making use of the Ca-dependent binding to Sepharose. […]

| Substance | IC50 [1] [µM] | inhibition of binding of LPS to monocytes (in words) [1] | activation (priming) of neutrophils by LPS [2] | binding to LPS-Beads / free LPS [3] |
| --- | --- | --- | --- | --- |
| SAP fragment, amino acids 27-34: Glu Lys Pro Leu Gln Asn Phe Thr, SEQ ID NO 8 (EKPLQNFT; Fragment of the Serum Amyloid P component, peptide 27-34) [PEP 27-34] | > 106 | – | – | – |
| SAP fragment, amino acids 27-39: Glu Lys Pro Leu Gln Asn Phe Thr Leu Cys Phe Arg Ala, SEQ ID NO 1 (EKPLQNFTLCFRA; Fragment of the Serum Amyloid P component, peptides 27-39; listed as Homo sapiens) [PEP 27-39] | 0.1 | very good activity | – | – |
| SAP fragment, amino acids 28-35: Lys Pro Leu Gln Asn Phe Thr Leu, SEQ ID NO 7 (KPLQNFTL; Fragment of the Serum Amyloid P component, peptide 28-35) [PEP 28-35] | > 100 | – | – | – |
| SAP fragment, amino acids 29-36: Pro Leu Gln Asn Phe Thr Leu Cys, SEQ ID NO 5 (PLQNFTLC; Fragment of the Serum Amyloid P component, peptide 29-36) [PEP 29-36] | 6.5 | acceptable activity | – | – |
| SAP fragment, amino acids 30-37: Leu Gln Asn Phe Thr Leu Cys Phe, SEQ ID NO 4 (LQNFTLCF; Fragment of the Serum Amyloid P component, peptide 30-37) [PEP 30-37] | 4.5 | acceptable activity | – | – |
| SAP fragment, amino acids 32-39: Asn Phe Thr Leu Cys Phe Arg Ala, SEQ ID NO 3 (NFTLCFRA; Fragment of the Serum Amyloid P component, peptides 32-39) [PEP 32-39] | 2 | acceptable activity | – | – |
| SAP fragment, amino acids 33-38: Phe Thr Leu Cys Phe Arg, SEQ ID NO 2 (FTLCFR; Fragment of the Serum Amyloid P component, peptides 33-38) [PEP 33-38] | – | acceptable activity | – | – |
| Serum Amyloid P component [SAP] | 0.05 | concentration-dependent inhibition | greatly reduced | capable of binding with free LPS; also recorded: binds to the LPS-Beads |
